From patent US4826856A, “Calcium antagonistic dihydropyridine derivative” (Yason s.r.l., priority 1985, dated 1989)
Read-outs that look alike come from different tables or passages of the source.

Columns and labels:
[1] = system: Sprague-Dawley rats; assay: Ventricular arrhythmias after re-circulation; type: in vivo, rat
Protocol: Ventricular arrhythmias after coronary artery ligation in the acute phase or during the period of re-circulation
Sprague-Dawley rats were subjected to ligation of the left coronary artery according to the method of Clark et al. in J. Pharmacol. Methods 3, 357-368, 1980. The drugs were administered by gastric tube 30 minutes before the ligation. By means of a continuous electrocardiographic recording, the ventricular arrhythmias such as ectopic beats (EB), ventricular tachycardia (VT), ventricular fibrillation (VF) for 30 minutes after ligation, were recorded.

[2] = system: normotensive rats; assay: Effect on blood pressure in normotensive rats (intraduodenal); type: in vivo, rat; conditions: 15 mg/kg intraduodenal; for HR (heart rate): in beats/min (unit assumed)
Protocol: Comparative effect of YS 201 on 3 month old rats and 6 month old SHR-SP
YS 201 was given by intraduodenal route at 15 mg/kg in normotensive rats.

[3] = system: volunteers; assay: Clinical tolerance of oral treatment in volunteers; type: in vivo, human
Protocol: The study was performed in 4 male subjects aged 26-43 years.
Each volunteer received one capsule of 20 mg of YS 201 with a glass of water.
The same four volunteers, after the first administration were treated with increasing doses of YS 201: 30-40-50 mg.

[4] = Acute toxicity in the rat; conditions: in vivo
Source text: (§1) The acute toxicity of YS 201 given by intraveous route, similar in the males and in the females in the rat as well as in the mouse, is as follows:
(§2) The acute toxicity of YS 201 given by oral route, similar in the males and in the females in the rat as well as in the mouse, is as follows: […]

[5] = Acute toxicity in the mouse; conditions: in vivo
Source text: as §1, §2

[6] = Bioavailability after oral administration in normal volunteers; type: in vivo, human; design: AUC: concentration or dose not given beside the values; conditions: for Tmax / Cmax / half-life / AUC: human, plasma, po; for Tmax / Cmax: oral 20 mg
Protocol: The study was performed in 4 male subjects aged 26-43 years. Pharmacokinetic studies were performed both after acute and repeated administrations. Acute administration […] Further venous blood samples were withdrawn 15-30 minutes and 1.0-1.5-2.0-4.0-6.0-8.0 hours after treatment. Multiple-doses administration […] Blood samples were withdrawn 2-4-8-12 hours after the last treatment.

[7] = system: post-oligoemic rats; assay: Transient cerebral oligoemia in the rat, cerebral water, K+ and Ca++ content; type: in vivo
Protocol: Transient cerebral oligoemia in the rat
The method described by Borzeix in Circulation et Metabolisme du Cerveau 1, 63-79, John Libbey Eurotext Publ. […] The animals were treated by the oral route with the tested drugs twice a day, starting one hour after the ligation and for 3 days, in scalar doses.
The last dose, at the 71th hour after the occlusion, preceeded by one hour the sacrifice of the animal, whose brain was subjected to the determination of the H2 O, K^+ and Ca^++ content.

[8] = Pharmacokinetics and bioavailability in dogs; type: in vivo; conditions: dog; for half-life: hydrochloride
Protocol: YS 201 hydrochloride was intravenously and orally administered to dogs at 1 and 10 mg/kg respectively.

SMILES: CCOC(=O)C1=C(C)NC(C)=C(C(=O)OCCN2CCCCC2)C1c1cccc([N+](=O)[O-])c1 (stereo not drawn) [YS 201, ethyl-(β-piperidinoethyl)-2,6-dimethyl-4-(3-nitrophenyl)-1,4-dihydropyridine-3,5-dicarboxylate]
- Death rate % ([1]; 7.5 mg/kg p.o.): 10%
- EBs, mean value of indices + SEM ([1]; 7.5 mg/kg p.o.): 42.8 ± 10.08
- VF % ([1]; 7.5 mg/kg p.o.): 60%
- VF, mean value of indices + SEM ([1]; 7.5 mg/kg p.o.): 1.3 ± 0.52
- VT, mean value of indices + SEM ([1]; 7.5 mg/kg p.o.): 2.2 ± 1.70
- Death rate % ([1]; 15 mg/kg p.o.): 0%
- EBs, mean value of indices + SEM ([1]; 15 mg/kg p.o.): 27.20 ± 5.87
- VF % ([1]; 15 mg/kg p.o.): 50%
- VF, mean value of indices + SEM ([1]; 15 mg/kg p.o.): 0.6 ± 0.33
- VT, mean value of indices + SEM ([1]; 15 mg/kg p.o.): 1.2 ± 0.39
- DBP (diastolic blood pressure) ([2]; 1 min): 13.0 ± 0.74
- MBP (mean blood pressure) ([2]; 1 min): 14.8 ± 0.64
- SBP (systolic blood pressure) ([2]; 1 min): 18.4 ± 0.48
- HR (heart rate) ([2]; 1 min): 556 ± 9.8
- DBP (diastolic blood pressure) ([2]; 2 min): 12.0 ± 0.35
- MBP (mean blood pressure) ([2]; 2 min): 13.9 ± 0.28
- SBP (systolic blood pressure) ([2]; 2 min): 17.8 ± 0.26
- HR (heart rate) ([2]; 2 min): 556 ± 7.5
- DBP (diastolic blood pressure) ([2]; 5 min): 10.4 ± 0.33
- MBP (mean blood pressure) ([2]; 5 min): 12.7 ± 0.19
- SBP (systolic blood pressure) ([2]; 5 min): 17.2 ± 0.26
- HR (heart rate) ([2]; 5 min): 564 ± 7.5
- reduction of diastolic blood pressure (DBP) ([2]; 5 min after administration): 3.1 KPA
- DBP (diastolic blood pressure) ([2]; 10 min): 9.4 ± 0.19
- MBP (mean blood pressure) ([2]; 10 min): 11.6 ± 0.15
- SBP (systolic blood pressure) ([2]; 10 min): 15.9 ± 0.19
- HR (heart rate) ([2]; 10 min): 536 ± 7.5
- DBP (diastolic blood pressure) ([2]; 15 min): 9.8 ± 0.34
- MBP (mean blood pressure) ([2]; 15 min): 11.7 ± 0.28
- SBP (systolic blood pressure) ([2]; 15 min): 15.6 ± 0.29
- HR (heart rate) ([2]; 15 min): 524 ± 11.7
- DBP (diastolic blood pressure) ([2]; 30 min): 11.3 ± 0.62
- MBP (mean blood pressure) ([2]; 30 min): 12.9 ± 0.51
- SBP (systolic blood pressure) ([2]; 30 min): 16.0 ± 0.35
- HR (heart rate) ([2]; 30 min): 496 ± 22.3
- DBP (diastolic blood pressure) ([2]; 60 min): 12.4 ± 0.40
- MBP (mean blood pressure) ([2]; 60 min): 14.0 ± 0.35
- SBP (systolic blood pressure) ([2]; 60 min): 17.3 ± 0.26
- HR (heart rate) ([2]; 60 min): 428 ± 24.2
- DBP (diastolic blood pressure) ([2]; 120 min): 13.7 ± 0.87
- MBP (mean blood pressure) ([2]; 120 min): 15.3 ± 0.90
- SBP (systolic blood pressure) ([2]; 120 min): 18.5 ± 1.06
- DBP (diastolic blood pressure) ([2]; TO (baseline)): 13.5 ± 0.55
- MBP (mean blood pressure) ([2]; TO (baseline)): 13.2 ± 0.50
- SBP (systolic blood pressure) ([2]; TO (baseline)): 18.5 ± 0.47
- HR (heart rate) ([2]; TO (baseline)): 432 ± 28.7
- normal respiratory function and other vital parameters ([3]; oral): not affected
- pathological modification of the arterial pressure ([3]; oral): not observed
- tolerance of oral treatment ([3]; oral): well tolerated
- sinus bradycardia ([3]; oral, two subjects (n. 3, 4)): moderate but definite sinus bradycardia
- atrio-ventricular conduction time (PR interval) ([3]; subject n. 1, delayed from 0.14 sec.): 0.16 s
- atrio-ventricular conduction time (PR interval) ([3]; subject n. 2, delayed from 0.16 sec.): 0.18 s
- atrio-ventricular conduction time (PR interval), change ([3]; two subjects (n. 1, 2)): slightly prolonged
- LD50 ([4]; iv): 12.5 mg/kg
- LD50 ([4]; po): 402 mg/kg
- LD50 ([5]; iv): 12.3 mg/kg
- LD50 ([5]; po): 283 mg/kg
- decline of plasma profile (compartment analysis) ([6]; acute and repeated administration): declines in one phase
- unchanged drug in plasma ([6]; after six hours, acute): still present in the plasma
- Tmax ([6]; 20 mg, acute study, read-out: average T max (converted)): 1.5 h
- Cmax ([6]; 20 mg, acute study, ±2.65 S.E., read-out: mean peak plasma level): 57.2 ng/mL
- half-life ([6]; 20 mg, after acute administration, mean of 4 volunteers, read-out: T1/2 el. (converted)): 1.88 h
- half-life ([6]; 20 mg, after acute administration, volunteer 1, read-out: T1/2 el. (converted)): 1.99 h
- half-life ([6]; 20 mg, after acute administration, volunteer 2, read-out: T1/2 el. (converted)): 1.05 h
- half-life ([6]; 20 mg, after acute administration, volunteer 3, read-out: T1/2 el. (converted)): 1.8 h
- half-life ([6]; 20 mg, after acute administration, volunteer 4, read-out: T1/2 el. (converted)): 2.66 h
- half-life ([6]; 20 mg, after acute administration, ±0.65 S.D., read-out: mean T1/2 el. / terminal half life (converted)): 1.8 h
- Cmax ([6]; 20 mg, mean of 4 volunteers, read-out: C max): 64.8 ng/mL
- Tmax ([6]; 20 mg, mean of 4 volunteers, read-out: T max): 1.5 h
- Cmax ([6]; 20 mg, volunteer 1, read-out: C max): 56 ng/mL
- Tmax ([6]; 20 mg, volunteer 1, read-out: T max): 1.5 h
- Cmax ([6]; 20 mg, volunteer 2, read-out: C max): 55 ng/mL
- Tmax ([6]; 20 mg, volunteer 2, read-out: T max): 1.5 h
- Cmax ([6]; 20 mg, volunteer 3, read-out: C max): 65 ng/mL
- Tmax ([6]; 20 mg, volunteer 3, read-out: T max): 2 h
- Cmax ([6]; 20 mg, volunteer 4, read-out: C max): 83 ng/mL
- Tmax ([6]; 20 mg, volunteer 4, read-out: T max): 1 h
- half-life ([6]; after multiple-doses administration, mean of 4 volunteers, read-out: T1/2 el. (converted)): 4.29 h
- half-life ([6]; after multiple-doses administration, volunteer 1, read-out: T1/2 el. (converted)): 4.11 h
- half-life ([6]; after multiple-doses administration, volunteer 2, read-out: T1/2 el. (converted)): 4.44 h
- half-life ([6]; after multiple-doses administration, volunteer 3, read-out: T1/2 el. (converted)): 4.12 h
- half-life ([6]; after multiple-doses administration, volunteer 4, read-out: T1/2 el. (converted)): 4.49 h
- half-life ([6]; after repeated administration, read-out: mean terminal half life (converted)): 4.29 h
- AUC ([6]; mean of 4 volunteers): 252 ng·h/mL
- AUC ([6]; volunteer 1): 219 ng·h/mL
- AUC ([6]; volunteer 2): 181 ng·h/mL
- AUC ([6]; volunteer 3): 269 ng·h/mL
- AUC ([6]; volunteer 4): 388 ng·h/mL
- plasma level relative to peak ([6]; multiple dose, four hours after administration): reduced to the half
- plasma level of unchanged drug vs acute treatment at same time ([6]; multiple dose, two hours after last treatment): three times upper
- unchanged drug in plasma ([6]; twelve hours after treatment, multiple dose): still present in the plasma
- Cerebral content of H2O ([7]; 0.25 mg/kg p.o.): 79.2 ± 0.57%
- Cerebral content of Ca++ ([7]; 0.5 mg/kg p.o.): 11.7 ± 3.00 mmol · kg^-1 dry weig
- Cerebral content of H2O ([7]; 0.5 mg/kg p.o.): 78.3 ± 0.39%
- Cerebral content of Ca++ ([7]; 1 mg/kg p.o.): 11.7 ± 5.53 mmol · kg^-1 dry weig
- Cerebral content of H2O ([7]; 1 mg/kg p.o.): 77.8 ± 0.47%
- Cerebral content of Ca++ ([7]; 3 mg/kg p.o.): 12.6 ± 3.89 mmol · kg^-1 dry weig
- Cerebral content of H2O ([7]; 3 mg/kg p.o.): 78.8 ± 0.44%
- decline in concentration ([8]; 1 mg/kg intravenous): typically biexponential
- bioavailability ([8]; in vivo, 10 mg/kg, oral, read-out: average apparent bioavailable fraction): 19.4%
- half-life ([8]; in vivo, 1 mg/kg intravenous, read-out: mean half-life of elimination): 1.47 h
- half-life ([8]; in vivo, 10 mg/kg oral, read-out: mean apparent half-life of elimination): 2.47 h
- AUC ([8]; in vivo, oral, 10 mg/kg, read-out: average AUC (converted)): 1080 ng·h/mL
- Cmax ([8]; in vivo, oral, 10 mg/kg, read-out: maximum concentration (Cmax)): 284 ng/mL
